Source: PubChem BioAssay AID248 (DTP/NCI, 2004)
Several values for one entry are separate records, joined by “and”; a condition that tells them apart may be missing. Equal values may be shown once. Toxic doses and inconclusive results are not listed. Rule as the data show it: active = T/C of 150% or more; inactive = T/C below 125%.

System: L1210 leukemia ip in BDF1 mice, survival T/C
Test: NCI In Vivo Anticancer Drug Screen. Data for tumor model L1210 Leukemia (intraperitoneal) in B6D2F1 (BDF1) mice
Conditions: endpoint: mean survival time, higher = longer survival
Procedure, shortened: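 Each compound was tested against a transplantable tumor grown in mice. The endpoint was survival, with treated animals benchmarked against vehicle controls as a simple ratio.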

[1] = dose: 100.0 mg/kg/injection, schedule: Q04DX002 (ip), vehicle: saline
[2] = dose: 100.0 mg/kg/injection, schedule: Q04DX003 (ip), vehicle: Klucel (hydroxypropylcellulose) (HPC)
[3] = dose: 200.0 mg/kg/injection, schedule: Q04DX002 (ip), vehicle: saline
[4] = dose: 200.0 mg/kg/injection, schedule: Q04DX003 (ip), vehicle: Klucel (hydroxypropylcellulose) (HPC)
[5] = dose: 400.0 mg/kg/injection, schedule: Q04DX003 (ip), vehicle: Klucel (hydroxypropylcellulose) (HPC)
[6] = dose: 100.0 mg/kg/injection, schedule: Q04DX003 (ip), vehicle: saline
[7] = dose: 200.0 mg/kg/injection, schedule: Q04DX003 (ip), vehicle: saline
[8] = dose: 100.0 mg/kg/injection, schedule: Q04DX003 (ip), vehicle: saline with Tween-80
[9] = dose: 75.0 mg/kg/injection, schedule: Q01DX001 (ip), vehicle: other
[10] = dose: 100.0 mg/kg/injection, schedule: Q01DX001 (ip), vehicle: Klucel (hydroxypropylcellulose) (HPC)
[11] = dose: 200.0 mg/kg/injection, schedule: Q01DX001 (ip), vehicle: Klucel (hydroxypropylcellulose) (HPC)
[12] = dose: 400.0 mg/kg/injection, schedule: Q01DX001 (ip), vehicle: Klucel (hydroxypropylcellulose) (HPC)
[13] = dose: 100.0 mg/kg/injection, schedule: Q01DX001 (ip), vehicle: saline
[14] = dose: 200.0 mg/kg/injection, schedule: Q01DX001 (ip), vehicle: saline
[15] = dose: 400.0 mg/kg/injection, schedule: Q01DX001 (ip), vehicle: saline

Measured: T/C

CC1=Nc2ccccc2NC(C)(C)C1
inactive: [1] 102 % of control | [2] 100 % of control | [3] 102 % of control | [4] 98 % of control | [5] 98 % of control

O=C(OCc1ccccc1)c1ccc(OCc2ccccc2)cc1
inactive: [6] 94 % of control | [7] 100 % of control | dose: 400.0 mg/kg/injection, schedule: Q04DX003 (ip), vehicle: saline 96 % of control

CCOC(=O)c1cc2ccccc2oc1=O
inactive: dose: 25.0 mg/kg/injection, schedule: Q01DX009 (ip), vehicle: saline with Tween-80 102 % of control | dose: 25.0 mg/kg/injection, schedule: Q04DX003 (ip), vehicle: saline with Tween-80 103 % of control | dose: 50.0 mg/kg/injection, schedule: Q01DX001 (ip), vehicle: other 95 % of control | dose: 50.0 mg/kg/injection, schedule: Q01DX009 (ip), vehicle: saline with Tween-80 98 % of control | dose: 50.0 mg/kg/injection, schedule: Q04DX003 (ip), vehicle: saline with Tween-80 98 % of control and 89 % of control | dose: 100.0 mg/kg/injection, schedule: Q01DX009 (ip), vehicle: saline with Tween-80 94 % of control | [8] 100 % of control and 103 % of control

CCCC(CC)C(=O)OCCCSCCCOC(=O)C(CC)CCC (configuration not stated)
inactive: dose: 222.0 mg/kg/injection, schedule: Q01DX Z (ip), vehicle: methylcellulose (MC) 92 % of control | dose: 333.0 mg/kg/injection, schedule: Q01DX Z (ip), vehicle: methylcellulose (MC) 94 % of control | dose: 500.0 mg/kg/injection, schedule: Q01DX Z (ip), vehicle: methylcellulose (MC) 87 % of control

C/C(=N\NC(N)=S)C(O)c1ccccc1 (configuration not stated)
inactive: dose: 5.0 mg/kg/injection, schedule: Q01DX001 (ip), vehicle: other 105 % of control | dose: 10.0 mg/kg/injection, schedule: Q01DX001 (ip), vehicle: other 100 % of control | dose: 20.0 mg/kg/injection, schedule: Q01DX001 (ip), vehicle: other 105 % of control | dose: 40.0 mg/kg/injection, schedule: Q01DX001 (ip), vehicle: other 100 % of control | dose: 80.0 mg/kg/injection, schedule: Q01DX001 (ip), vehicle: other 105 % of control

C/C=C/CC1(C(C)C)C(=O)NC(=O)NC1=O
inactive: [9] 103 % of control | dose: 75.0 mg/kg/injection, schedule: Q01DX001 (ip), vehicle: saline 101 % of control | dose: 150.0 mg/kg/injection, schedule: Q01DX001 (ip), vehicle: other 105 % of control | dose: 150.0 mg/kg/injection, schedule: Q01DX001 (ip), vehicle: saline 104 % of control

O=C(O)CC1(C(=O)O)CCN(Cc2ccccc2)CC1
inactive: [2] 103 % of control | [4] 102 % of control | [5] 100 % of control

Cc1nc[nH]c(=O)c1CCC(C)C
inactive: [10] 107 % of control | [11] 105 % of control | [12] 100 % of control

O=C(N/N=C/c1ccc(Cl)cc1Cl)c1ccccc1
inactive: [2] 101 % of control | [4] 95 % of control

CC1(C)CSC(=S)N1CCC#N
inactive: [9] 104 % of control

OCC1OC(n2ccc3c([Se]Cc4ccccc4)ncnc32)C(O)C1O (configuration not stated)
inactive: dose: 0.78 mg/kg/injection, schedule: Q01DX009 (ip), vehicle: saline 101 % of control | dose: 1.56 mg/kg/injection, schedule: Q01DX009 (ip), vehicle: saline 105 % of control | dose: 3.12 mg/kg/injection, schedule: Q01DX009 (ip), vehicle: saline 109 % of control | dose: 6.25 mg/kg/injection, schedule: Q01DX009 (ip), vehicle: saline 86 % of control | dose: 12.5 mg/kg/injection, schedule: Q01DX005 (ip), vehicle: saline 100 % of control | dose: 25.0 mg/kg/injection, schedule: Q01DX005 (ip), vehicle: saline 101 % of control

COc1ccc(C(=S)N2CCN(c3cccc(Cl)c3)CC2)cc1
inactive: [13] 96 % of control | [14] 91 % of control | [15] 91 % of control

N=C(N)SC1c2ccccc2-c2ccc(Br)cc21 (configuration not stated)
inactive: dose: 75.0 mg/kg/injection, schedule: Q01DX001 (ip), vehicle: carboxymethylcellulose (CMC) 104 % of control | dose: 150.0 mg/kg/injection, schedule: Q01DX001 (ip), vehicle: carboxymethylcellulose (CMC) 91 % of control

COC(=O)c1ccc(C)nc1OC/C=C(\C)CCC=C(C)C
inactive: [13] 104 % of control | dose: 100.0 mg/kg/injection, schedule: Q01DX009 (ip), vehicle: saline 110 % of control | [14] 99 % of control | dose: 200.0 mg/kg/injection, schedule: Q01DX009 (ip), vehicle: saline 102 % of control | [15] 90 % of control | dose: 400.0 mg/kg/injection, schedule: Q01DX009 (ip), vehicle: saline 106 % of control

O=C(O)c1c(Cl)c(Cl)c(Cl)c(Cl)c1-c1c2ccc(=O)c(O)c-2oc2c(O)c(O)ccc12
inactive: [6] 102 % of control | [7] 93 % of control

O=C1NC(=O)C2(CCN(c3ccccc3)CC2)C(=O)N1
inactive: [13] 94 % of control | [14] 96 % of control | [15] 96 % of control

COc1c(Cl)cc2c(c1OC)N(C)C1N3C(=O)C4(C)SSC3(CC21O)C(=O)N4C (configuration not stated)
inactive: dose: 0.12 mg/kg/injection, schedule: Q01DX009 (ip), vehicle: Klucel (hydroxypropylcellulose) (HPC) 100 % of control | dose: 0.25 mg/kg/injection, schedule: Q01DX009 (ip), vehicle: Klucel (hydroxypropylcellulose) (HPC) 101 % of control | dose: 0.5 mg/kg/injection, schedule: Q01DX009 (ip), vehicle: Klucel (hydroxypropylcellulose) (HPC) 108 % of control | dose: 1.0 mg/kg/injection, schedule: Q01DX009 (ip), vehicle: Klucel (hydroxypropylcellulose) (HPC) 111 % of control

N#Cc1c2ccccc2c(=N)n2ccccc12
inactive: [10] 95 % of control | [2] 98 % of control | [11] 105 % of control | [4] 104 % of control | [12] 95 % of control | [5] 114 % of control

O=Nc1ccc(NO)cc1
inactive: [8] 98 % of control and 100 % of control | dose: 200.0 mg/kg/injection, schedule: Q04DX003 (ip), vehicle: saline with Tween-80 98 % of control and 100 % of control | dose: 400.0 mg/kg/injection, schedule: Q04DX003 (ip), vehicle: saline with Tween-80 108 % of control and 91 % of control

N=C(N)SC12CC3CC(CC(C3)C1)C2
inactive: dose: 10.0 mg/kg/injection, schedule: Q04DX002 (ip), vehicle: Klucel (hydroxypropylcellulose) (HPC) 94 % of control | dose: 20.0 mg/kg/injection, schedule: Q04DX002 (ip), vehicle: Klucel (hydroxypropylcellulose) (HPC) 87 % of control | dose: 40.0 mg/kg/injection, schedule: Q04DX002 (ip), vehicle: Klucel (hydroxypropylcellulose) (HPC) 94 % of control

CCC1(c2ccccc2)OC1C(=O)OCC(C)C (configuration not stated)
inactive: [1] 112 % of control | [3] 97 % of control | dose: 400.0 mg/kg/injection, schedule: Q04DX002 (ip), vehicle: saline 101 % of control
